How the values were obtained:
Type in all cases: in vivo
[1] = test system: Myzus persicae; test: Green peach aphid (Myzus persicae) mortality test on dipped pepper plants; settings: 120 h, pepper plant leaves dipped, aphid mortality determined after 5 days, read-out: mortality in comparison with untreated controls
Protocol: (§1) The active compounds were formulated • a. for testing the activity against Aphis gossypii, Myzus persicae, and Aphis fabae, as 50:50 acetone:water solutions amended with 100 ppm Kinetic® (surfactant), • b. for testing the activity against Spodoptera eridania as a 10.000 ppm solution in a mixture of 35% acetone and water, which was diluted with water, if needed.
(§2) After the experiments were completed, in each case the lowest concentration was determined at which the compound still caused an 75 to 100% inhibition or mortality in comparison with untreated controls (limit or minimal concentration).
B.2 Green Peach Aphid (Myzus persicae)
(§3) Pepper plants in the 2nd leaf-pair stage (variety ‘California Wonder’) are infested with approximately 40 laboratory-reared aphids by placing infested leaf sections on top of the test plants. The leaf sections are removed after 24 hr. The leaves of the intact plants are dipped into gradient solutions of the test compound. Aphid mortality on the treated plants, relative to mortality on check plants, is determined after 5 days.

[2] = test system: Aphis gossypii; test: Cotton aphid (Aphis gossypii) mortality test on dipped cotton plants; settings: 120 h, cotton cotyledons dipped, aphid mortality determined after 5 days, read-out: mortality in comparison with untreated controls
Protocol: as §1, §2
B.1 Cotton Aphid (Aphis gossypii)
as §3, with “Cotton” for “Pepper”, “cotyledon” for “2nd leaf-pair”, “‘Delta Pine’)” for “‘California Wonder’)”, “100” for “40”, “cotyledons” for “leaves”

[3] = test system: Aphis fabae; test: Bean aphid (Aphis fabae) mortality test on dipped nasturtium plants; settings: foliar, 72 h, nasturtium foliage and stem dipped, aphid mortality determined after 3 days, read-out: mortality in comparison with untreated controls
Protocol: as §1, §2
B.3 Bean Aphid (Aphis fabae)
Nasturtium plants in the 1st leaf-pair stage (variety ‘Mixed Jewel’) are infested with approximately 25 laboratory-reared aphids by placing infested cut plants on top of the test plants. The cut plants are removed after 24 hr. The foliage and stem of the test plants are dipped into gradient solutions of the test compound. Aphid mortality is determined after 3 days.

Measured: mortality at 300 ppm

O=C(OCCNC(=S)NC1CCc2ccccc21)c1ccncc1 (racemic) [Example 13, Isonicotinic acid 2-(3-indan-1-yl-thioureido)-ethyl ester]
> 80%: all assays above

COCC(=O)OCCNC(=S)NC1CCc2ccccc21 (racemic) [Example 14, Methoxy-acetic acid 2-(3-indan-1-yl-thioureido)-ethyl ester]
> 80%: all assays above

Source: patent publication US7674827B2, “Indanyl- and tetrahydronaphtyl-amino-thiourea compounds for combating animal pests” (BASF SE, priority 2005, dated 2010)
